Several values for one entry are separate records, joined by “and”; a condition that tells them apart may be missing. Equal entries are not always repeated.
Tests used:
[1] = molecular target: T1, CAMKK2 kinase domain (132–470) (Homo sapiens, UniProt Q96RR4); assay: CaMKK2B TR-FRET tracer displacement assay; assay type: binding; conditions: for IC50 / FRET (IC50): CaMKK2, displacement of tracer 236, average of 2 experiments; for increase in potency over compound 2: CaMKK2 FRET IC50 relative to compound 2
T1 construct: CAMKK2 kinase domain (132–470) was cloned in a pNIC-Bio2 vector; 10xHis tag followed by a TEV site (N, cleaved yes); made in house; host or cells: E. coli BL21(DE3)-R3-BirA
Excerpt: To more accurately determine the relative changes in potency of the TDZ analogues and to enable measurement of accurate IC50^’s, we developed a Time-Resolved Fluorescence Resonance Energy Transfer (TR-FRET) assay. The TR-FRET tracer displacement assays were generated using a protocol derived from the Lanthascreen binding assays (ThermoFisher Scientific, Waltham, MA, USA) [21].

[2] = Chemical stability of the dianilinothiadiazinone core (TLC); assay type: physicochemical; conditions: 48 h; neutral, acidic (HCl 2 M) or pH 9 aqueous conditions, BuNH2, PhNH2, PhSH, DDQ, Sn
Experimental: After the synthesis of the desired dianilino-TDZs (1–5), the stability of dianilinothiadiazinone in biological systems was assessed: 3,5-bis(phenylamino)-4H-1,2,6-thiadiazin-4-one (9) was subjected to neutral, acidic or slightly basic aqueous conditions (H2O/DMSO 50:50, THF/HCl 2 M 50:50 or THF/H2O 50:50 at pH 9 with a carbonate buffer), presence of amine or thiol nucleophiles (BuNH2 1 equiv., PhNH2 1 equiv., PhSH 1 equiv.), oxidizing [2,3-dichloro-5,6-dicyano-1,4-benzoquinone (DDQ) 2 equiv.] and reducing conditions (Sn, 2 equiv.).

[3] = molecular target: T2, human CaMKK2 (residues 50–588) (Homo sapiens, UniProt Q96RR4); assay: CaMKK2 enzyme assay ([γ-32P]-ATP, CaMKKtide peptide); assay type: biochemical; conditions: for IC50: 50 μM ATP, 7 concentrations, mean of 2 experiments;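 on all read-outs here: radiometric kinase assay: phosphate transfer from [γ-32P]-ATP to synthetic peptide substrate, 10 min reaction at 30 °C, peptide-bound radioactivity captured on P81 paper and measured by scintillation counting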
T2 construct: recombinant bacterial expressed human CaMKK2 (residues 50–588); made in house
Experimental: CaMKK2 activity was measured by determining the rate of transfer of radiolabeled phosphate from [γ-^32P]-ATP to a synthetic peptide substrate [22].
A standard 30 μL assay, 1 ng of recombinant bacterial expressed human CaMKK2 (residues 50–588) was added to assay buffer (50 mM HEPES [pH 7.4], 1 mM DTT, 0.02% (v/v) Brij-35) containing 200 μM CaMKKtide peptide substrate, 50 μM CaCl2, 1 μM calmodulin (Sigma-Aldrich Corp., St. Louis, MO, USA), 50 μM [γ-^32P]-ATP (Perkin Elmer) and 5 mM MgCl2, in the presence and absence of different concentrations of small-molecule inhibitors. Reactions were incubated for 10 min at 30 °C, after which they were terminated by spotting 15 μL onto P81 phosphocellulose paper (Whatman, GE Healthcare, Chicago, IL, USA) and washing extensively in 1% phosphoric acid. Radioactivity was quantified by scintillation counting.

[4] = tested on: kinases including ERK8, MNK1 and PIM3; design: method as in PMID 17519230, PMID 12540834; conditions: cited from earlier work
[5] = design: method as in PMID 17519230, PMID 12540834; conditions: cited from earlier work
[6] = tested on: arylhydrocarbon receptor (AhR); design: method as in PMID 18755850; conditions: cited from earlier work

T1 sequence (Q96RR4 132-470): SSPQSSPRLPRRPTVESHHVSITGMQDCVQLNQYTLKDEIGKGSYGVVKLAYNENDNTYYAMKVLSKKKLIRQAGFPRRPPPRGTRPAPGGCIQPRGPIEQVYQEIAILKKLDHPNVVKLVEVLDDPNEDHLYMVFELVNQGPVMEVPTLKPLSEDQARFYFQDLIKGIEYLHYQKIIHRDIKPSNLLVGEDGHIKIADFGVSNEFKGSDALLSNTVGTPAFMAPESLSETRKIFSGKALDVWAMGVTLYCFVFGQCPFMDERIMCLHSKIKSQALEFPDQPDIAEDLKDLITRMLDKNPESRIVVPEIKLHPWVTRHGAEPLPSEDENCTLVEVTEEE

Compound | IC50 [1] | Enzyme assay raw data (0 μM drug = 100.00) ([3]; [drug] 0.001 μM) | Enzyme assay raw data (0 μM drug = 100.00) ([3]; [drug] 0.01 μM) | Enzyme assay raw data (0 μM drug = 100.00) ([3]; [drug] 0.1 μM) | Enzyme assay raw data (0 μM drug = 100.00) ([3]; [drug] 1 μM) | Enzyme assay raw data (0 μM drug = 100.00) ([3]; [drug] 10 μM) | Enzyme assay raw data (0 μM drug = 100.00) ([3]; [drug] 100 μM) | melting point | also measured
4-({5-[(3-Hydroxy-4-methylphenyl)amino]-4-oxo-4H-1,2,6-thiadiazin-3-yl}(oxazol-4-ylmethyl)amino)-benzamide [Compound 16] | > 50 µM |  |  |  |  |  |  |  | 
O=c1c(Nc2ccccc2)nsnc1Nc1ccccc1 [Compound 9, 3,5-bis(phenylamino)-4H-1,2,6-thiadiazin-4-one] |  |  |  |  |  |  |  |  | stability (by TLC) [2]: stable
Cc1ccc(Nc2nsnc(Nc3ccc(C#N)cc3)c2=O)cc1O [Compound 15, 4-({5-[(3-Hydroxy-4-methylphenyl)amino]-4-oxo-4H-1,2,6-thiadiazin-3-yl}amino)benzonitrile] | > 50 µM |  |  |  |  |  |  | 280 °C (dec.) | 
Cc1ccc(Nc2nsnc(Nc3ccccc3CO)c2=O)cc1O [Compound 17, 3-[(3-Hydroxy-4-methylphenyl)amino]-5-{[2-(hydroxymethyl)phenyl]amino}-4H-1,2,6-thiadiazin-4-one] | > 50 µM |  |  |  |  |  |  |  | FRET (IC50) [1]: effectively inactive
Cc1ccc(Nc2nsnc(Nc3cccc(C(F)(F)F)c3CO)c2=O)cc1O [Compound 18, 3-[(3-Hydroxy-4-methylphenyl)amino]-5-{[2-(hydroxymethyl)-3-(trifluoromethyl)phenyl]amino}-4H-1,2,6-thiadiazin-4-one] | > 50 µM |  |  |  |  |  |  |  | FRET (IC50) [1]: effectively inactive
O=C(O)c1ccc2c3c1cccc3c(=O)n1c3ccccc3nc21 [STO-609, 7-oxo-7H-benzimidazo[2,1-a]benz[de]isoquinoline-3-carboxylic acid, reference compound] |  | 88.33 | 69.88 | 42.21 | 4.64 | 1.89 | 0.07 |  | off-target kinome profile [4]: unfavorable off-target kinome profile; solubility [5]: poor solubility; activity on arylhydrocarbon receptor (AhR) [6]: agonist

More lines, main results first:

IC50 [1] | Enzyme assay raw data (0 μM drug = 100.00) ([3]; [drug] 0.001 μM) | Enzyme assay raw data (0 μM drug = 100.00) ([3]; [drug] 0.01 μM) | Enzyme assay raw data (0 μM drug = 100.00) ([3]; [drug] 0.1 μM) | Enzyme assay raw data (0 μM drug = 100.00) ([3]; [drug] 1 μM) | Enzyme assay raw data (0 μM drug = 100.00) ([3]; [drug] 10 μM) | Enzyme assay raw data (0 μM drug = 100.00) ([3]; [drug] 100 μM) | melting point | Compound | also measured
7.8 µM | 102.30 | 98.48 | 91.02 | 85.36 | 52.53 | 2.19 |  | Cc1ccc(Nc2nsnc(Nc3ccccc3C(N)=O)c2=O)cc1O [Compound 10, 2-({5-[(3-Hydroxy-4-methylphenyl)amino]-4-oxo-4H-1,2,6-thiadiazin-3-yl}amino)benzamide] | IC50 [3]: 11.9 µM; increase in potency over compound 2 [1]: > 8 fold
3.2 µM | 98.56 | 93.09 | 84.85 | 79.37 | 42.11 | 1.23 |  | Cc1ccc(Nc2nsnc(Nc3ccc(-c4ncc[nH]4)cc3)c2=O)cc1O [Compound 11, 3-{[4-(1H-Imidazol-2-yl)phenyl]amino}-5-[(3-hydroxy-4-methylphenyl)amino]-4H-1,2,6-thiadiazin-4-one] | IC50 [3]: 6.51 µM and 6.5 µM; increase in potency over compound 2 [1]: > 15 fold
10.5 µM | 102.38 | 95.03 | 89.54 | 79.70 | 28.43 | 0.83 |  | Cc1ccc(Nc2nsnc(Nc3ccc(C(=O)O)cc3)c2=O)cc1O [Compound 12, 4-({5-[(3-Hydroxy-4-methylphenyl)amino]-4-oxo-4H-1,2,6-thiadiazin-3-yl}amino)benzoic acid] | IC50 [3]: 4.09 µM and 4.1 µM; increase in potency over compound 2 [1]: > 5 fold
43 µM |  |  |  |  |  |  | 229 to 230 °C | Cc1ccc(Nc2nsnc(Nc3ccccc3C#N)c2=O)cc1O [Compound 13, 2-({5-[(3-Hydroxy-4-methylphenyl)amino]-4-oxo-4H-1,2,6-thiadiazin-3-yl}amino)benzonitrile] | 
> 50 µM |  |  |  |  |  |  | 258 to 259 °C | Cc1ccc(Nc2nsnc(Nc3cccc(C#N)c3)c2=O)cc1O [Compound 14, 3-({5-[(3-Hydroxy-4-methylphenyl)amino]-4-oxo-4H-1,2,6-thiadiazin-3-yl}amino)benzonitrile] | 
38 µM |  |  |  |  |  |  | 277 to 278 °C | Cc1ccc(Nc2nsnc(-c3ccc(C(=O)O)c(C4CCCC4)c3)c2=O)cc1O [Compound 19, 2-Cyclopentyl-4-{5-[(3-hydroxy-4-methylphenyl)amino]-4-oxo-4H-1,2,6-thiadiazin-3-yl}-benzoic acid] | 

Source: paper PMC6019134, “1,2,6-Thiadiazinones as Novel Narrow Spectrum Calcium/Calmodulin-Dependent Protein Kinase Kinase 2 (CaMKK2) Inhibitors” (Molecules : A Journal of Synthetic Chemistry and Natural …, 2018)
